Article PMC3171734 (2011)

T1: dimethylarginine dimethylaminohydrolase (P. aeruginosa DDAH) (Pseudomonas aeruginosa, UniProt Q9I4E3)
T1 sequence (Q9I4E3 1-254): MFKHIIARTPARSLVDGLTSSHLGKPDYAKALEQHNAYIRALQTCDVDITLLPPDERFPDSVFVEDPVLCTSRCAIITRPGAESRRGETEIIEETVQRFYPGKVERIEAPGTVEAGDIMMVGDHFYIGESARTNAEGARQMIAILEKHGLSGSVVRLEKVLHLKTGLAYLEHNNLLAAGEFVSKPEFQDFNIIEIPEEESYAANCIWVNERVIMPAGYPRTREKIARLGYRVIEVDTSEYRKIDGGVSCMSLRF


How the values were obtained:
[1] = biological target: T1, dimethylarginine dimethylaminohydrolase (P. aeruginosa DDAH); assay: dose-dependent inhibition of isolated enzyme; assay type: biochemical
human DDAH-1 = human DDAH-1 (Homo sapiens, UniProt O94760); assay: dose-dependent inhibition of isolated enzyme; assay type: biochemical
human DDAH-1, sequence (O94760 2-285): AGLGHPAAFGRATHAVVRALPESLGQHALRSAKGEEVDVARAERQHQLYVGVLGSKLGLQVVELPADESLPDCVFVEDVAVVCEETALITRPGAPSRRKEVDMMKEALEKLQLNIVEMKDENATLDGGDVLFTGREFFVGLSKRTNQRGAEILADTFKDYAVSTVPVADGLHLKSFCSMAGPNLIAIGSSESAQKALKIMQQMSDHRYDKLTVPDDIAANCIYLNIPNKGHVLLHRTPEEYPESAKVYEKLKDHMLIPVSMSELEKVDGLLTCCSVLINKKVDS

[2] = substrate: CSC(=N)NCCC[C@H](N)C(=O)O; assay: steady-state kinetics, DTNB-coupled 384-well assay; assay type: biochemical, Pseudomonas aeruginosa

Molecule | IC50 [1] [nM] | IC50 (human DDAH-1) [nM] | Km [2] [µM]
O=c1c2ccccc2[se]n1-c1ccccc1 [ebselen] | 96 ± 2 | 330 ± 30 | 
dimethylarginine dimethylaminohydrolase (P. aeruginosa DDAH) (Pseudomonas aeruginosa PAO1) (protein) MFKHIIARTPARSLVDGLTSSHLGKPDYAKALEQHNAYIRALQTCDVDITLLPPDERFPDSVFVEDPVLCTSRCAIITRPGAESRRGETEIIEETVQRFYPGKVERIEAPGTVEAGDIMMVGDHFYIGESARTNAEGARQMIAILEKHGLSGSVVRLEKVLHLKTGLAYLEHNNLLAAGEFVSKPEFQDFNIIEIPEEESYAANCIWVNERVIMPAGYPRTREKIARLGYRVIEVDTSEYRKIDGGVSCMSLRF |  |  | 22 ± 1
